In US6699459B2, “Methods of treating lung inflammation” (The Board of Regents of the University of Texas System, priority 2001, dated 2004):

Assays:
Format in all cases: cell-based, human
A549 cells = experiment: Total number of cells and cell viability by trypan blue exclusion; conditions: 400 μM, data not shown
Description: (§1) Cell culture and infection of epithelial cells with RSV. A549, human alveolar type II-like epithelial cells (ATCC, Manassas, Va.), were maintained in F12K medium containing 10% (v/v) fetal bovine serum (FBS), 10 mM glutamine, 100 IU/ml penicillin and 100 μg/ml streptomycin. Small alveolar epithelial cells (SAE) were obtained from Clonetics (San Diego, Calif.) and grown according to the company instructions. Cell monolayers were infected with RSV at multiplicity of infection (MOI) of 1 (unless otherwise stated), as described (17). An equivalent amount of a 20% sucrose solution was added to uninfected A549 cells, as a control. For the antioxidant experiments, cells were pretreated with the antioxidants for one hour and then infected in the presence of the antioxidants. Since BHA was diluted in ethanol, equal amounts of ethanol were added to untreated cells, as a control. Total number of cells, cell viability and viral replication, following antioxidant treatment, were measured by trypan blue exclusion and by plaque assay, respectively.

IRF-1 mRNA = experiment: Northern blot of IRF-1 mRNA in RSV-infected A549 cells; conditions: 400 μM
Description: Northern Blot. Total RNA was extracted from control and infected A549 cells by the acid guanidium thiocyanate-phenol chloroform method (18). Twenty micrograms of RNA were fractionated on a 1.2% agarose-formaldehyde gel, transferred to nylon membranes and hybridized to a radiolabeled RANTES, IRF-1, -3 and -7 cDNAs, as previously described (19). Hybridization temperature for all probes was 55° C. After washing, membranes were exposed for autoradiography using Kodak XAR film at −70° C. using intensifying screens. After exposure, membranes were stripped and rehybridized with a β-actin probe.

RANTES mRNA = experiment: Northern blot of RANTES mRNA in RSV-infected A549 cells; conditions: 400 μM
Description: as §1, with “respectively. Northern Blot. Total RNA was extracted from control and infected A549 cells by the acid guanidium thiocyanate-phenol chloroform method (18). Twenty micrograms of RNA were fractionated on a 1.2% agarose-formaldehyde gel, transferred to nylon membranes and hybridized to a radiolabeled RANTES, IRF-1, -3 and -7 cDNAs, as previously described (19). […]” for “respectively.”

RANTES ISRE = experiment: EMSA of RANTES ISRE binding complexes, nuclear extracts of RSV-infected A549 cells; conditions: RSV 12 hours, 400 μM
Description: Electrophoretic mobility shift assay (EMSA): Nuclear extracts of uninfected and infected A549 cells were prepared using hypotonic/nonionic detergent lysis, as previously described (20). Proteins were normalized by protein assay (Protein Reagent, Bio-Rad, Hercules, Calif.) and used to bind to a duplex oligonucleotide corresponding to the RANTES ISRE, whose sequences is shown below:
DNA-binding reactions contained 10-15 μg nuclear proteins, 5% glycerol, 12 mM HEPES, 80 mM NaCl, 5 mM dithiothreitol (DTT), 5 mM Mg2Cl, 0.5 mM EDTA, 1 μg of poly dI-dC and 40,000 cpm of ^32P-labeled double-stranded oligonucleotide in a total volume of 20 μl. The nuclear proteins were incubated with the probe for 15 minutes at room temperature and then fractionated by 6% nondenaturing polyacrylamide gels (PAGE) in TBE buffer (22 mM Tris-HCl, 22 mM boric acid, 0.25 mM EDTA, pH 8). After electrophoretic separation, gels were dried and exposed for autoradiography using Kodak XAR film at −70° C. using intensifying screens.

ROS = experiment: H2O2-induced ROS production in A549 cells (DCF oxidation); conditions: 200 μM H2O2, 400 μM BHA
Description: Assesment of intracellular ROS generation. A549 cells were grown in 96-well tissue culture plates and infected with RSV, at 0.1, 0.5 and 1 multiplicity of infection (MOI). At different times post-infection, cells were washed with Hank's Balanced Salt Solution (HBSS) and loaded with 10 μM 2,7 dichlorofluorescein diacetate (DCF-DA) in HBSS medium containing 25 mM HEPES, pH 7.4, for 30 minutes at 37° C. The cells were then washed twice and fluorescence intensity was determined at 485 nm excitation and 590 nm emission, using an automated fluorescence reader (Flurocount, Hewlett-Packard Instruments, IL). For the experiments in which H2O2 was used as a stimulus for ROS production, cells were preloaded with […] DCF-DA for 30 minutes, washed and then fluorescence intensity was measured at different times following addition of H2O2. Measurements were performed in triplicate and results expressed as fluorescence mean±S.D. of n=3 independent experiments.

STAT-3 = experiment: Western blot of phosphorylated and total nuclear STAT-3 in RSV-infected A549 cells; conditions: nuclear proteins, 400 μM
Description: (§2) Western Immunoblot. Nuclear proteins were prepared as previously described, fractionated by SDS-PAGE and transferred to PVDF membrane (20). Membranes were blocked with 5% albumin in TBS-Tween and incubated overnight with antibody recognizing the tyrosine phosphorylated form of STAT-1 and STAT-3 (Santa Cruz Biotech, Santa Cruz, Calif.). Membranes were stripped and reprobed with antibodies to STAT-1 and STAT-3 (Santa Cruz Biotech, Santa Cruz, Calif.). For secondary detection, a horseradish-coupled anti-rabbit or anti-mouse antibody was used (Santa Cruz Biotech, Santa Cruz, Calif.) in the enhanced chemiluminescence assay (Amersham Life Science, Arlington Heights, Ill.).

STAT-1 = experiment: Western blot of phosphorylated and total nuclear STAT-1 in RSV-infected A549 cells; conditions: nuclear proteins, 400 μM
Description: as §2

## COc1ccc(O)c(C(C)(C)C)c1 [BHA, butylated hydroxyanisol]
A549 cells
  total cell number and viability: unchanged
IRF-1 mRNA; 6 and 12 hours post-infection
  IRF-1 mRNA accumulation: almost completely blocked
IRF-1 mRNA; 24 hours post-infection
  IRF-1 mRNA accumulation: significantly reduced
RANTES mRNA; 6 and 12 hours post-infection
  RSV-induced RANTES mRNA induction: completely inhibited
RANTES mRNA; 24 hours post-infection
  RSV-induced RANTES mRNA induction: greatly reduced
RANTES ISRE
  RSV-induced RANTES ISRE binding: completely abolished
ROS
  H2O2-induced ROS production: almost completely inhibited
STAT-3
  RSV-induced STAT-3 nuclear translocation: completely inhibited
  RSV-induced STAT-3 phosphorylation: completely abolished
STAT-1
  RSV-induced STAT-1 phosphorylation: completely blocked
  RSV-inducible nuclear STAT-1 form: disappears
  nuclear STAT-1 form present in uninfected and infected cells: not affected
